How the values were obtained:
[1] = Mean residential time in Sprague-Dawley rat at 10 mg/kg, iv by LC-MS/MS analysis; assay type: ADME, organism-based; settings: in vivo
[2] = molecular target: T1, 5-hydroxytryptamine receptor 7 (Homo sapiens, UniProt P34969); assay: Displacement of [3H]LSD from 5-HT7 receptor (unknown origin) expressed in CHO-K1 cells by liquid scintillation counting method; assay type: cell-based
[3] = molecular target: T1, 5-hydroxytryptamine receptor 7; assay: Binding affinity to recombinant 5-HT7 receptor (unknown origin) after 1.5 hrs by radioligand displacement assay
[4] = molecular target: T2, 5-hydroxytryptamine receptor 1A (Homo sapiens, UniProt P08908); assay: Binding affinity to recombinant 5-HT1A receptor (unknown origin) after 1.5 hrs by radioligand displacement assay
T2 sequence (P08908 whole entry): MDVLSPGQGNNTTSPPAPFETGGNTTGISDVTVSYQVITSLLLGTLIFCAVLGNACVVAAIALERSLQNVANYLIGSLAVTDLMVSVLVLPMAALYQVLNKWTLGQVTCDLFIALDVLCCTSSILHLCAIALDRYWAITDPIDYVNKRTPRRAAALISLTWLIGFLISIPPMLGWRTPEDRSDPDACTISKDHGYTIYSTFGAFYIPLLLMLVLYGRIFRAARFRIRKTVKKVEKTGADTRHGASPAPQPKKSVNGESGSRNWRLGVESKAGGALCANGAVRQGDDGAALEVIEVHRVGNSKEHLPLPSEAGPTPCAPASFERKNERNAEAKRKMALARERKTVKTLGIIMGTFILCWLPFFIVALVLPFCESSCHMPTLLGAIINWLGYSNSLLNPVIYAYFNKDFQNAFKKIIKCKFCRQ

[5] = molecular target: 5-hydroxytryptamine receptor 1B (Homo sapiens, UniProt P28222); assay: Binding affinity to recombinant 5-HT1B receptor (unknown origin) after 1.5 hrs by radioligand displacement assay
5-hydroxytryptamine receptor 1B, sequence (P28222 whole entry): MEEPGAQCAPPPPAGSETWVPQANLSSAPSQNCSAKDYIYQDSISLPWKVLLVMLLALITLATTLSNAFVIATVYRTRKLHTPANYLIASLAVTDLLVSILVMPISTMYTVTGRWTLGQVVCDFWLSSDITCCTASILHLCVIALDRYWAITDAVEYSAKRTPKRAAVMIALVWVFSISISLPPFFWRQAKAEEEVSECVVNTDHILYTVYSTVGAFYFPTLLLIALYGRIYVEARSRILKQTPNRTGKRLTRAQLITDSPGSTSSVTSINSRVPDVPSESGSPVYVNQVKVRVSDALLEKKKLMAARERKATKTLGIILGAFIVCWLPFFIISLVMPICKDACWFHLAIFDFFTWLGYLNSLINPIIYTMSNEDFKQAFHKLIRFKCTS

[6] = molecular target: 5-hydroxytryptamine receptor 1D (Homo sapiens, UniProt P28221); assay: Binding affinity to recombinant 5-HT1D receptor (unknown origin) after 1.5 hrs by radioligand displacement assay
5-hydroxytryptamine receptor 1D, sequence (P28221 whole entry): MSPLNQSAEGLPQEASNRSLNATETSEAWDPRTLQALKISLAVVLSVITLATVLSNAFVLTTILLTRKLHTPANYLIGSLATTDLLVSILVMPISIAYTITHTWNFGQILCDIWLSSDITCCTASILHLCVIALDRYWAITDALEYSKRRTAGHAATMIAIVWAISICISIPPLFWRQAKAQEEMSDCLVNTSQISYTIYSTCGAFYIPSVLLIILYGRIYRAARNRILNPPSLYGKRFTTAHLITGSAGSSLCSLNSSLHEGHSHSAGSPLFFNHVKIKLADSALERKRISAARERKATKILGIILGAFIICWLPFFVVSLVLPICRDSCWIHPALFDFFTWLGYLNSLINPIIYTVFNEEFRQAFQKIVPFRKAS

[7] = molecular target: 5-hydroxytryptamine receptor 2A (Homo sapiens, UniProt P28223); assay: Binding affinity to recombinant 5-HT2A receptor (unknown origin) after 1.5 hrs by radioligand displacement assay
5-hydroxytryptamine receptor 2A, sequence (P28223 whole entry): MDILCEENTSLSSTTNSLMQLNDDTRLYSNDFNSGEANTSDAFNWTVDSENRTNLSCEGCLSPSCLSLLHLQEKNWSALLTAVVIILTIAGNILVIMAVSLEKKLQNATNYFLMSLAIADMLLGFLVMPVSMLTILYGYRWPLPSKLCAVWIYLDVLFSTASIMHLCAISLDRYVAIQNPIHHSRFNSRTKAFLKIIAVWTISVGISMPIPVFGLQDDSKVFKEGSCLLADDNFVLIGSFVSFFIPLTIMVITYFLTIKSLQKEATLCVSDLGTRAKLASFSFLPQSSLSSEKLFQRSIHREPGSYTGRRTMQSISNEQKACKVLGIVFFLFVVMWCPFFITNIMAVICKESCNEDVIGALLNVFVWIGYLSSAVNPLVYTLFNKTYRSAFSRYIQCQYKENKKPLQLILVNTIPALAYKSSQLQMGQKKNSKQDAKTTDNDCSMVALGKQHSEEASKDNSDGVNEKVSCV

[8] = molecular target: 5-hydroxytryptamine receptor 2B (Homo sapiens, UniProt P41595); assay: Binding affinity to recombinant 5-HT2B receptor (unknown origin) after 1.5 hrs by radioligand displacement assay
5-hydroxytryptamine receptor 2B, sequence (P41595 whole entry): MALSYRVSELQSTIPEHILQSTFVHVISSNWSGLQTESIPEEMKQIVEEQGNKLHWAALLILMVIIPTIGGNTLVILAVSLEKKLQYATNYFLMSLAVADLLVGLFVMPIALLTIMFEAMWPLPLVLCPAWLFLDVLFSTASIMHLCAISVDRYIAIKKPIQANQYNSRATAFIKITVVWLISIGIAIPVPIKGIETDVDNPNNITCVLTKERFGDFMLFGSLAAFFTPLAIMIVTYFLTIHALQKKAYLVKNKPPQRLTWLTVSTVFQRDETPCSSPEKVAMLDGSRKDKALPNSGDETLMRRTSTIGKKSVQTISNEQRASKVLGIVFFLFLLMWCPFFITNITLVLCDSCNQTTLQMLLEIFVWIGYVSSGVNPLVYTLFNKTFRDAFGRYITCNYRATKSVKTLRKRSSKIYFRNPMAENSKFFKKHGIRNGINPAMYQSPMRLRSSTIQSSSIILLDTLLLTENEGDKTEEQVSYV

[9] = molecular target: T3, 5-hydroxytryptamine receptor 2C (Homo sapiens, UniProt P28335); assay: Binding affinity to recombinant 5-HT2C receptor (unknown origin) after 1.5 hrs by radioligand displacement assay
T3 sequence (P28335 whole entry): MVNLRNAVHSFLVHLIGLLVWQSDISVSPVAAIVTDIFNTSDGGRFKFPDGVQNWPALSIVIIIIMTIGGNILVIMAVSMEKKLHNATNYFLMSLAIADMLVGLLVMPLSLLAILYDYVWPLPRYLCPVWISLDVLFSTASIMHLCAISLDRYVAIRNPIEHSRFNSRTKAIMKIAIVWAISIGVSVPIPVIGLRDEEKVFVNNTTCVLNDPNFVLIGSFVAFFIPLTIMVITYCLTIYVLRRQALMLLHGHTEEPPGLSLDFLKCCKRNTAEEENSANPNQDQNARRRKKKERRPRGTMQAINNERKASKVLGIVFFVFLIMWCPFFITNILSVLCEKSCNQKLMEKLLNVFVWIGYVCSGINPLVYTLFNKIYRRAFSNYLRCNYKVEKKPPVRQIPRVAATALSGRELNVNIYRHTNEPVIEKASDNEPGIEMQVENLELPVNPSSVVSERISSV

[10] = molecular target: T4, 5-hydroxytryptamine receptor 3A (Homo sapiens) (UniProt P46098); assay: Binding affinity to recombinant 5-HT3 receptor (unknown origin) at 10 uM after 1.5 hrs by radioligand displacement assay
T4 sequence (whole entry): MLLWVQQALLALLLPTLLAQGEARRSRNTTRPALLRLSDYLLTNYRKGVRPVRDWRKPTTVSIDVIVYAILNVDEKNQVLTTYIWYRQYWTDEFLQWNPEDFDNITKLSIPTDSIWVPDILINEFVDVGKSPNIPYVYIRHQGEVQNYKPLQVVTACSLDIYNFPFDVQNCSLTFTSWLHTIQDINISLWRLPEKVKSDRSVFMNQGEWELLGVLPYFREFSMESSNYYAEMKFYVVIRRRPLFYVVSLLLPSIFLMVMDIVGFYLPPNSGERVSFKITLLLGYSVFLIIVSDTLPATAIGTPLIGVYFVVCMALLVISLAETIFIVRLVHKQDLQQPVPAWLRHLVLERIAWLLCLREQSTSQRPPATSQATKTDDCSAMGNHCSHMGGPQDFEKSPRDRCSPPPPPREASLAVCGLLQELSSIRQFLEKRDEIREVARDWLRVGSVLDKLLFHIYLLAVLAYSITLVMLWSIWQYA

[11] = molecular target: 5-hydroxytryptamine receptor 5A (Homo sapiens, UniProt P47898); assay: Binding affinity to recombinant 5-HT5 receptor (unknown origin) at 10 uM after 1.5 hrs by radioligand displacement assay
5-hydroxytryptamine receptor 5A, sequence (P47898 whole entry): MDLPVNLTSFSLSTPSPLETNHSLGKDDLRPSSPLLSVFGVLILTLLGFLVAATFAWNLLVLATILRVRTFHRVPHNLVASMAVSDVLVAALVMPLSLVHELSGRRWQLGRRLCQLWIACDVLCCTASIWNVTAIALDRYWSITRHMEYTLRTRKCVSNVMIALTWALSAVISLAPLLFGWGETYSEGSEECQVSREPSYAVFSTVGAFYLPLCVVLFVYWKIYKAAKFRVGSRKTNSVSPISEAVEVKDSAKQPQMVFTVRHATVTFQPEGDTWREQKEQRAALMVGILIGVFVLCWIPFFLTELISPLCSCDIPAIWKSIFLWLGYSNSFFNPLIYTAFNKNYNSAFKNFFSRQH

[12] = molecular target: 5-hydroxytryptamine receptor 6 (Homo sapiens, UniProt P50406); assay: Binding affinity to recombinant 5-HT6 receptor (unknown origin) at 10 uM after 1.5 hrs by radioligand displacement assay
5-hydroxytryptamine receptor 6, sequence (P50406 whole entry): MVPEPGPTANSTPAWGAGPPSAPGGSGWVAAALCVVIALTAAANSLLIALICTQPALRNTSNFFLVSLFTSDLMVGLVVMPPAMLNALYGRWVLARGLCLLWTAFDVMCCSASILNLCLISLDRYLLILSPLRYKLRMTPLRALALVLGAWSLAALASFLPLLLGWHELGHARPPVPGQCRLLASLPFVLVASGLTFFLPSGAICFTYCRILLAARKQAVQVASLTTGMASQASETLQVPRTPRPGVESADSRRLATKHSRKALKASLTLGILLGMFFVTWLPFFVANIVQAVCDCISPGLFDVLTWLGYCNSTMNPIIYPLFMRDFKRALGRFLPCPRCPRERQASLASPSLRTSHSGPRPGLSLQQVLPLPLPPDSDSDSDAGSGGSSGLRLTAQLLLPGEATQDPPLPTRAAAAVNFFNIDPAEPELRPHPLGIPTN

[13] = molecular target: T1, 5-hydroxytryptamine receptor 7; assay: Antagonist activity at human 5-HT7 receptor expressed in HEK293 cells assessed as inhibition of 5-HT-induced cAMP production at 10 uM pretreated for 10 mins followed by stimulation with 5-HT for 30 mins by fluorescence analysis; assay type: functional, cell-based
[14] = molecular target: T1, 5-hydroxytryptamine receptor 7; assay: Agonist activity at human 5-HT7 receptor expressed in HEK293 cells assessed as increase in cAMP level at 12.5 uM by fluorescence analysis relative to 5-CT; assay type: functional, cell-based
[15] = Metabolic stability in human liver microsomes assessed as compound remaining at 1 uM after 30 mins by LC-MS/MS in presence of NADPH; assay type: ADME; settings: read-out: Stability
[16] = AUC (0 to infinity) in Sprague-Dawley rat at 10 mg/kg, iv by LC-MS/MS analysis; assay type: ADME, organism-based; parameters: dose 10 mg/kg, route intravenous, time infinity; settings: in vivo
[17] = AUC (0 to infinity) in Sprague-Dawley rat at 10 mg/kg, po by LC-MS/MS analysis; assay type: ADME, organism-based; parameters: dose 10 mg/kg, route oral, time infinity; settings: in vivo
[18] = AUC (0 to last) in Sprague-Dawley rat at 10 mg/kg, iv by LC-MS/MS analysis; assay type: ADME, organism-based; parameters: dose 10 mg/kg, time 0 - last, route intravenous; settings: in vivo
[19] = AUC (0 to last) in Sprague-Dawley rat at 10 mg/kg, po by LC-MS/MS analysis; assay type: ADME, organism-based; parameters: dose 10 mg/kg, time 0 - last, route oral; settings: in vivo
[20] = Terminal half life in Sprague-Dawley rat at 10 mg/kg, iv by LC-MS/MS analysis; assay type: ADME, organism-based; settings: in vivo, read-out: beta t1/2
[21] = Terminal half life in Sprague-Dawley rat at 10 mg/kg, po by LC-MS/MS analysis; assay type: ADME, organism-based; settings: in vivo, read-out: beta t1/2
[22] = Cmax in Sprague-Dawley rat at 10 mg/kg, po by LC-MS/MS analysis; assay type: ADME, organism-based; parameters: dose 10 mg/kg, route oral; settings: in vivo
[23] = Tmax in Sprague-Dawley rat at 10 mg/kg, po by LC-MS/MS analysis; assay type: ADME, organism-based; settings: in vivo
[24] = Clearance in Sprague-Dawley rat at 10 mg/kg, iv by LC-MS/MS analysis; assay type: ADME, organism-based; settings: in vivo
[25] = Volume of distribution at steady state in Sprague-Dawley rat at 10 mg/kg, iv by LC-MS/MS analysis; assay type: ADME, organism-based; settings: in vivo, read-out: Vdss
[26] = Plasma concentration in Sprague-Dawley rat at 10 mg/kg, iv after 2 hrs by LC-MS/MS analysis; assay type: ADME, organism-based
[27] = Plasma concentration in Sprague-Dawley rat at 10 mg/kg, po after 2 hrs by LC-MS/MS analysis; assay type: ADME, organism-based
[28] = Drug uptake in Sprague-Dawley rat brain at 10 mg/kg, iv after 2 hrs by LC-MS/MS analysis; assay type: ADME, organism-based; settings: read-out: Drug uptake
[29] = Drug uptake in Sprague-Dawley rat brain at 10 mg/kg, po after 2 hrs by LC-MS/MS analysis; assay type: ADME, organism-based; settings: read-out: Drug uptake
Mus musculus = assay: Antidepressant activity in ICR mouse assessed as immobility time at 30 mg/kg, iv administered 30 mins before testing by forced swim test (reference value: 159.1 sec); assay type: functional
[30] = Ratio of drug uptake in brain to plasma of Sprague-Dawley rat at 10 mg/kg, iv after 2 hrs by LC-MS/MS analysis; assay type: ADME, organism-based; settings: read-out: BPR
[31] = Oral bioavailability in Sprague-Dawley rat at 10 mg/kg by LC-MS/MS analysis; assay type: ADME, organism-based; settings: in vivo
[32] = Ratio of drug uptake in brain to plasma of Sprague-Dawley rat at 10 mg/kg, po after 2 hrs by LC-MS/MS analysis; assay type: ADME, organism-based; settings: read-out: BPR

T1 sequence (P34969 whole entry): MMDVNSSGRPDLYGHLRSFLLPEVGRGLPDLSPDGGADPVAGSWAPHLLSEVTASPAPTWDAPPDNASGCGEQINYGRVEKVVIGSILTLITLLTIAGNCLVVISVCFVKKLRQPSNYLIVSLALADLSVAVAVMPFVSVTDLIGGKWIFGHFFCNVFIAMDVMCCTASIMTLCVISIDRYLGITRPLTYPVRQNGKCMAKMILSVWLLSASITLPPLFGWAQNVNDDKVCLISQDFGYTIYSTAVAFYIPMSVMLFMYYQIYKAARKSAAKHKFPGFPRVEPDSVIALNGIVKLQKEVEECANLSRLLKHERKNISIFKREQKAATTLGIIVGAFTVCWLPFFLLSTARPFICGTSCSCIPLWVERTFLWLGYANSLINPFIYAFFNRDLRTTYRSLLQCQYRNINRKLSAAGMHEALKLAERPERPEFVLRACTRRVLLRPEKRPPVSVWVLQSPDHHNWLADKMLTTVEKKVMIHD

MRT [1]: 2.81 h
Ki [2]: 74 nM
Ki [3]: 74 nM
Ki [4]: 549 nM
Ki [5]: 845 nM
Ki [6]: 1280 nM
Ki [7]: 1260 nM
Ki [8]: 419 nM
Ki [9]: 588 nM
inhibition [10]: 18%
inhibition [11]: 34%
inhibition [12]: 31%
inhibition [13]: 75.2%
Activity [14]: 22.2%
remaining at 0.5 h, 1 µM [15]: 50.8%
AUC(0-inf) [16]: 1470 ng·h/mL
AUC(0-inf) [17]: 998 ng·h/mL
AUC(0-t) [18]: 1170 ng·h/mL
AUC(0-t) [19]: 561 ng·h/mL
half-life [20]: 199 min
half-life [21]: 397 min
Cmax [22]: 160 ng/mL
Tmax [23]: 3.57 h
clearance [24]: 114 mL/min/kg
Vd [25]: 33.5 L/kg
concentration at 2 h [26]: 210 ng/mL
concentration at 2 h [27]: 70 ng/mL
concentration at 2 h [28]: 268 ng/mL
concentration at 2 h [29]: 1530 ng/mL
Kp at 2 h [30]: 1.23
bioavailability [31]: 67.8%
Kp at 2 h [32]: 25.5
SMILES: COc1ccccc1N1CCN(CCCCCC(=O)n2c3ccccc3c3ccccc32)CC1.Cl
Time (Mus musculus): 118.9 s
